We go through 26 compounds from US8697739B2, “Bicyclic acetyl-CoA carboxylase inhibitors and uses thereof” (Novartis AG, priority 2010, dated 2014).

pIC50: −log10 of the molar value.

T1 sequence (O00763 144-2458): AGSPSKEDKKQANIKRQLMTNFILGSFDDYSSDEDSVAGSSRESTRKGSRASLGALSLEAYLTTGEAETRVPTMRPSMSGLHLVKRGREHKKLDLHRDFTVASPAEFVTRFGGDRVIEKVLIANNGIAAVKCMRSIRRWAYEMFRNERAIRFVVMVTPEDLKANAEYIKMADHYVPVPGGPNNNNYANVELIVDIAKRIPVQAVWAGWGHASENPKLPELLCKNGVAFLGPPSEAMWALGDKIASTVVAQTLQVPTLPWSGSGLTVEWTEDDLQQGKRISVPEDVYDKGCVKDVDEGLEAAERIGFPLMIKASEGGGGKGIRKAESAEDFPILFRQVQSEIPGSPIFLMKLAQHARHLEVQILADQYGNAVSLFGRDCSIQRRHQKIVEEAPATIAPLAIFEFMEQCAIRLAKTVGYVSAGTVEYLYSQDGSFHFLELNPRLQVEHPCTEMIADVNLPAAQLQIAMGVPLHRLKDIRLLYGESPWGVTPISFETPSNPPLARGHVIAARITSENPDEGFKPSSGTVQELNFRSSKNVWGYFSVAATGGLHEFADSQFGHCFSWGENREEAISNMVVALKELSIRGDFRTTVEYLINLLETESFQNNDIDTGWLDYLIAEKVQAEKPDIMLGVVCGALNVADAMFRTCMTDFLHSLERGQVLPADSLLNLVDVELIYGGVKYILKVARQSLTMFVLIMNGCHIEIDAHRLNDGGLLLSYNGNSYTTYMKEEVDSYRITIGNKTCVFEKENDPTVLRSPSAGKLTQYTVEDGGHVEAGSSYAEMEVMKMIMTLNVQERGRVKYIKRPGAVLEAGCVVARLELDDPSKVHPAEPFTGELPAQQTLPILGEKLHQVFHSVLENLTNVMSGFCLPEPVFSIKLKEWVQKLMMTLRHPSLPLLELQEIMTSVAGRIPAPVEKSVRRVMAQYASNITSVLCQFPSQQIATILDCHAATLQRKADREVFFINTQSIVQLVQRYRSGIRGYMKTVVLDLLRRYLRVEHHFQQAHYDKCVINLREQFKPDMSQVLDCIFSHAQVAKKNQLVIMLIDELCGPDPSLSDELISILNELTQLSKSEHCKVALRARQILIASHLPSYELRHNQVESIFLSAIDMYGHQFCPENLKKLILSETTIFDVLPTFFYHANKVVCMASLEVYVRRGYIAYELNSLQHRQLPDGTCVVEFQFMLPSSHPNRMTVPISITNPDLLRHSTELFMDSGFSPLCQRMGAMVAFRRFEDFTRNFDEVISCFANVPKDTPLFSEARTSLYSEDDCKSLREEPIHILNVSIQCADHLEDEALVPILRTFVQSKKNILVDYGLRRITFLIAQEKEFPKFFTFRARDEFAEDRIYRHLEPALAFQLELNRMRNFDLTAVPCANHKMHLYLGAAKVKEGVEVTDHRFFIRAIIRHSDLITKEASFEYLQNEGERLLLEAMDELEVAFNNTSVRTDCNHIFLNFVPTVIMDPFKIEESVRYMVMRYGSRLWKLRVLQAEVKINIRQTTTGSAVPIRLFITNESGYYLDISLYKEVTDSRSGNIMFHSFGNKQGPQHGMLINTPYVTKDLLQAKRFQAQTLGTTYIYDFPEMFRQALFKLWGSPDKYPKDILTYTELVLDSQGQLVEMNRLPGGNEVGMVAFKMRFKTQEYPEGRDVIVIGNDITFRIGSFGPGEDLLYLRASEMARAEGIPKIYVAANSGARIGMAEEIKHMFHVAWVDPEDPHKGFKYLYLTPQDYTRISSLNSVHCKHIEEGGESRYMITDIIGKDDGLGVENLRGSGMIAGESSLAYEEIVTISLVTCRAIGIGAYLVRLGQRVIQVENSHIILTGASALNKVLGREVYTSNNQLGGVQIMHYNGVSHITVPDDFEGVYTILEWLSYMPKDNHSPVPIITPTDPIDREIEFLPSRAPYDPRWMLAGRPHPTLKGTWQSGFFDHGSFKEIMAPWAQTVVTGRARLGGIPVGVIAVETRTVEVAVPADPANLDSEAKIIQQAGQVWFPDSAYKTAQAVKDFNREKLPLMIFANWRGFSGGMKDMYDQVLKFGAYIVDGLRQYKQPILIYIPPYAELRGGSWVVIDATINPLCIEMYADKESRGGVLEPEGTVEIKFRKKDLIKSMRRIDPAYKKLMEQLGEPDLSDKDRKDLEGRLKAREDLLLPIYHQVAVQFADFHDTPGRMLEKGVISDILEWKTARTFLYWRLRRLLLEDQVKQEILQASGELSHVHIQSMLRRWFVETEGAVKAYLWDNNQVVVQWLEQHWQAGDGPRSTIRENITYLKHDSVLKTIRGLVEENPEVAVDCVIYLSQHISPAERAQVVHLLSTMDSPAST

The assay has as its target T1, human acetyl-CoA carboxylase 2 (ACC2) (Homo sapiens, UniProt O00763).
T1 construct: The cDNA encoding amino acids 144 to 2458 of human acetyl-CoA carboxylase 2; made in house; host or cells: Sf9 insect cells (baculovirus, pFastBac1)
The assay can be described thus: Acetyl-CoA carboxylase enzyme assay (malonyl-CoA formation by LC/MS/MS). Format: biochemical. The conditions noted are these: recombinant human ACC2 (aa 144-2458); read-out: IC50 ACC2. The text has this:
The cDNA encoding amino acids 144 to 2458 of human acetyl-CoA carboxylase 2 (ACC2, GenBank Accession #NM_001093) was cloned into the SalI and NotI sites of pFastBac1 (Invitrogen; Carlsbad, Calif.). The resulting plasmid was used to generate a recombinant ACC2 baculovirus that was amplified and titered according to the protocols in the Bac-to-Bac baculovirus expression system manual (Invitrogen). The titered virus was used to infect Sf9 cells grown in Ex-Cell 420 serum-free medium (JRH Biosciences; Lenexa, Kans.). At 48 hours post-infection, the cells were harvested and stored at −80° C. until purification. ACC2 was purified using ammonium sulfate precipitation and anion exchange chromatography.
The enzymatic assay was run as follows: 30 μL of reaction buffer (100 mM HEPES pH 7.5, 20 mM MgCl2, 20 mM potassium citrate, 2 mM DTT) was added to a 384-well microtiter plate followed by 2 μL of the test compound (or 100% DMSO control). ACC2 protein (10 μL of a 50 nM working solution) was added to plate, which was incubated at room temperature for 15 minutes. A 30 μL addition of substrate solution (50 μM acetyl-CoA, 120 μM ATP, 2 mM KHCO3) was used to initiate the reactions which were quenched with 6% acetic acid (40 μL). ACC catalyzed malonyl-CoA formation was detected by LC/MS/MS using a Cohesive Technologies LX Series multiplex LC/MSIMS system configured with four binary pumps (Agilent Technologies; Palo Alto, Calif.), a dual arm autosampler (Leap Technologies; Cary, N.C.), and one Quattro Micro triple quadrupole mass spectrometer (Waters, Milford, Mass.), all run by Aria Software version 1.5 (Cohesive Technologies; Franklin, Mass.). Four samples were injected (20 μL) onto four Phenosphere NEXT C18 30×2 mm 5 μm columns (Phenomenex; Torrance, Calif.), eluted by four separate pumps, running identical gradients, through a column switching manifold with the one outlet fitted to the electrospray (ESI) source. Malonyl-CoA was eluted with 5 mM ammonium acetate, pH 4.5 (Buffer A) and 100% acetonitrile (Buffer B) via a step gradient. Argon was used as the collision gas and the following species were monitored via MRM detection: malonyl-CoA (853.8>346.9), internal standard (A: [^13C3]-malonyl-CoA, 857>350). The lower limit of detection is 0.3 uM for malonyl-CoA in this assay.
A word on the pIC50: it is the IC50 on a negative log10 scale, so that one unit is a factor of ten. `Cc1nc2cc(S(=O)(=O)N[C@H]3CC[C@H](C(=O)N[C@H](C)c4ccc(F)cc4)CC3)ccc2n1C` [Example 5, (1r,4R)-4-(1,2-dimethyl-1H-benzo[d]imidazole-5-sulfonamido)-N—((R)-1-(4-fluorophenyl)ethyl)cyclohexanecarboxamide]: the negative logarithm of the IC50 (pIC50) is 6.61.
The figure for `CC(C)N(C)C(=O)[C@H]1CC[C@H](NS(=O)(=O)c2ccc3[nH]c(-c4cccnc4)cc3c2)CC1` [Example 288, (1r,4r)-N-isopropyl-N-methyl-4-(2-(pyridin-3-yl)-1H-indole-5-sulfonamido)cyclohexanecarboxamide] is 6.40.
Next, `C[C@@H](NC(=O)[C@H]1CC[C@H](NS(=O)(=O)c2ccc3cc(-c4ccccc4)[nH]c3c2)CC1)c1ccccc1` [Example 282, (1r,4R)-4-(2-phenyl-1H-indole-6-sulfonamido)-N-((R)-1-phenylethyl)cyclohexanecarboxamide]: 7.74; `C[C@@H](NC(=O)[C@H]1CC[C@H](NS(=O)(=O)c2ccc3c(c2)C(NC(=O)C(F)(F)F)CCN3)CC1)c1ccc(F)cc1` (stereo partly drawn) [Example 185, (1r,4R)-N-((R)-1-(4-fluorophenyl)ethyl)-4-(4-(2,2,2-trifluoroacetamido)-1,2,3,4-tetrahydroquinoline-6-sulfonamido)cyclohexanecarboxamide]: under 4.46; `CCc1ccc2cc(S(=O)(=O)N[C@H]3CC[C@H](C(=O)N[C@H](C)c4ccc(F)cc4)CC3)ccc2n1` [Example 74, (1r,4R)-4-(2-ethylquinoline-6-sulfonamido)-N-((R)-1-(4-fluorophenyl)ethyl)cyclohexanecarboxamide]: 6.80.
For the compound `CCOc1ccc2cc(S(=O)(=O)N[C@H]3CC[C@H](C(=O)N[C@H](CC(=O)O)c4ccccc4)CC3)ccc2n1` [Example 228, (R)-3-((1r,4R)-4-(2-ethoxyquinoline-6-sulfonamido)cyclohexanecarboxamido)-3-phenylpropanoic acid], the pIC50 is 6.67.
Next, `O=C([C@H]1CC[C@H](NS(=O)(=O)c2ccc3c(c2)CCCN3)CC1)N1CCNCC1c1ccccc1` (some centres unmarked) [Example 175, N-((1r,4r)-4-(2-phenylpiperazine-1-carbonyl)cyclohexyl)-1,2,3,4-tetrahydroquinoline-6-sulfonamide]: 6.92.
Next, `C[C@@H](NC(=O)[C@H]1CC[C@H](NS(=O)(=O)c2ccc3cc(-c4ccccc4CO)[nH]c3c2)CC1)c1ccc(F)cc1` [Example 299, (1r,4R)-N-((R)-1-(4-fluorophenyl)ethyl)-4-(2-(2-(hydroxymethyl)phenyl)-1H-indole-6-sulfonamido)cyclohexanecarboxamide]: 7.96; `Cn1c(-c2ccccc2)cc2ccc(S(=O)(=O)N[C@H]3CC[C@H](C(=O)N4CCCOCC4)CC3)cc21` [Example 402, N-((1r,4r)-4-(1,4-oxazepane-4-carbonyl)cyclohexyl)-1-methyl-2-phenyl-1H-indole-6-sulfonamide]: 6.89.
The figure for `Cn1c(C2CC2)cc2ccc(S(=O)(=O)N[C@H]3CC[C@H](C(=O)N4CCNC(C(F)(F)F)C4)CC3)cc21` (some centres unmarked) [Example 356, 2-cyclopropyl-1-methyl-N-((1r,4r)-4-(3-(trifluoromethyl)piperazine-1-carbonyl)cyclohexyl)-1H-indole-6-sulfonamide] is 6.25; for `CCOc1ccc2cc(S(=O)(=O)N[C@H]3CC[C@H](C(=O)N4CCNCC4c4ccccc4)CC3)ccc2n1` (some centres unmarked) [Example 204, 2-ethoxy-N-((1r,4r)-4-(2-phenylpiperazine-1-carbonyl)cyclohexyl)quinoline-6-sulfonamide] it is 7.10; for `CC(C)Cc1cc2ccc(S(=O)(=O)N[C@H]3CC[C@H](C(=O)N[C@H](C)c4ccc(F)cc4)CC3)cc2[nH]1` [Example 303, (1r,4R)-N-((R)-1-(4-fluorophenyl)ethyl)-4-(2-isobutyl-1H-indole-6-sulfonamido)cyclohexanecarboxamide] it is 6.24.
In the case of `C[C@@H](NC(=O)[C@H]1CC[C@H](NS(=O)(=O)c2ccc3cc(C4CC4)[nH]c3c2)CC1)c1ccccn1` [Example 294, (1r,4R)-4-(2-cyclopropyl-1H-indole-6-sulfonamido)-N-((R)-1-(pyridin-2-yl)ethyl)cyclohexanecarboxamide], the pIC50 is 6.55.
Next, `CC(C)OC(=O)c1ccc(NS(=O)(=O)c2ccc3nc(-c4ccc(C(C)O)cc4)[nH]c3c2)cc1` (centres unmarked) [Example 517, isopropyl 4-(2-(4-(1-hydroxyethyl)phenyl)-1H-benzo[d]imidazole-6-sulfonamido)benzoate]: 6.61.
The figure for `CCCCNC(=O)[C@H]1CC[C@H](NS(=O)(=O)c2ccc3[nH]c(-c4ccccc4)nc3c2)CC1` [Example 633, (1r,4r)-N-butyl-4-(2-phenyl-1H-benzo[d]imidazole-5-sulfonamido)cyclohexanecarboxamide] is 5.93; for `CCOc1ccc2cc(S(=O)(=O)N[C@H]3CC[C@H](C(=O)N[C@@H](c4ccccc4)C(C)(C)O)CC3)ccc2n1` [Example 206, (1r,4S)-4-(2-ethoxyquinoline-6-sulfonamido)-N-((S)-2-hydroxy-2-methyl-1-phenylpropyl)cyclohexanecarboxamide] it is 7.70; for `C[C@@H](NC(=O)[C@H]1CC[C@H](NS(=O)(=O)c2ccc3[nH]c(-c4ccccc4)nc3c2)CC1)c1ccc(F)cc1` [Example 611, (1r,4R)-N-((R)-1-(4-fluorophenyl)ethyl)-4-(2-phenyl-1H-benzo[d]imidazole-5-sulfonamido)cyclohexanecarboxamide] it is over 8.00.
For the compound `O=C([C@H]1CC[C@H](NS(=O)(=O)c2ccc3c(Cl)c(-c4ccccc4)[nH]c3c2)CC1)N1CCCCC1` [Example 373, 3-chloro-2-phenyl-N-((1r,4r)-4-(piperidine-1-carbonyl)cyclohexyl)-1H-indole-6-sulfonamide], the pIC50 is 7.12.
`Cn1c(-c2ccccc2)cc2ccc(S(=O)(=O)N[C@H]3CC[C@H](C(=O)N[C@@H](c4ccccc4)C(C)(C)C(=O)O)CC3)cc21` [Example 411, (S)-2,2-dimethyl-3-((1r,4S)-4-(1-methyl-2-phenyl-1H-indole-6-sulfonamido)cyclohexanecarboxamido)-3-phenylpropanoic acid]: the pIC50 was over 8.00.
Next, `CC(C)OC(=O)c1ccc(NS(=O)(=O)c2ccc3[nH]c(Nc4ccc5nsnc5c4)nc3c2)cc1` [Example 527, isopropyl 4-(2-(benzo[c][1,2,5]thiadiazol-5-ylamino)-1H-benzo[d]imidazole-5-sulfonamido)benzoate]: 6.77; `Cn1c(C2CC2)c(Cl)c2ccc(S(=O)(=O)N[C@H]3CC[C@H](C(=O)N4CCOCC4)CC3)cc21` [Example 363, 3-chloro-2-cyclopropyl-1-methyl-N-((1r,4r)-4-(morpholine-4-carbonyl)cyclohexyl)-1H-indole-6-sulfonamide]: 6.92.
With `C[C@H]1CCCN1C(=O)[C@H]1CC[C@H](NS(=O)(=O)c2ccc3ccccc3c2)CC1` [Example 146, N-((1S,4r)-4-((S)-2-methylpyrrolidine-1-carbonyl)cyclohexyl)naphthalene-2-sulfonamide], the pIC50 is 6.02.
On to `Cn1ccc2cc(S(=O)(=O)N[C@H]3CC[C@H](C(=O)N[C@@H](CO)c4ccccc4)CC3)ccc21` [Example 671, (1r,4R)-N-((R)-2-hydroxy-1-phenylethyl)-4-(1-methyl-1H-indole-5-sulfonamido)cyclohexanecarboxamide], for which the pIC50 is under 4.46.
Next, `CC(C)OC(=O)c1ccc(NS(=O)(=O)c2ccc3[nH]c(-c4ccc(CN(C)C)cc4)nc3c2)cc1` [Example 558, isopropyl 4-(2-(4-((dimethylamino)methyl)phenyl)-1H-benzo[d]imidazole-5-sulfonamido)benzoate]: 6.47; `Cc1c(C2CC2)n(C)c2cc(S(=O)(=O)N[C@H]3CC[C@H](C(=O)N4CCOC[C@@H]4C)CC3)ccc12` [Example 32, 2-cyclopropyl-1,3-dimethyl-N-((1S,4r)-4-((S)-3-methylmorpholine-4-carbonyl)cyclohexyl)-1H-indole-6-sulfonamide]: 6.61.
Turning to `CCOC(=O)Cc1nc2cc(S(=O)(=O)N[C@H]3CC[C@H](C(=O)N[C@H](C)c4ccc(F)cc4)CC3)ccc2[nH]1` [Example 667, ethyl 2-(5-(N-((1R,4r)-4-((R)-1-(4-fluorophenyl)ethylcarbamoyl)cyclohexyl)sulfamoyl)-1H-benzo[d]imidazol-2-yl)acetate], the negative-log IC50 (pIC50) is 6.21.
